Entries after “also recorded” stand apart in the source; their conditions may differ.
How the values were obtained:
VeroE6/TMPRSS2 cells = conditions: at a concentration of 100 μM; result in words
[1] = molecular target: SARS-CoV-2 RNA polymerase (RdRp) (Severe acute respiratory syndrome coronavirus 2, UniProt P0DTD1); assay: RdRp inhibition assay; type: biochemical; conditions: Figure 4; result in words
[2] = tested on: 3-chymotrypsin-like (3CL) protease of SARS-CoV-2; conditions: result in words; cited from earlier work
SARS-CoV-2 = type: cell-based; conditions: for anti-SARS-CoV-2 activity (library screening): tetrazolium dye method, result in words
neural stem cells = conditions: result in words; cited from earlier work

SMILES | toxicity (VeroE6/TMPRSS2 cells) | Inhibitory effect on SARS-CoV-2 RdRp activity [1] | inhibition of 3CL protease of SARS-CoV-2 [2] | Microscopic observation of cell survival (SARS-CoV-2) | anti-SARS-CoV-2 activity (library screening) (SARS-CoV-2) | neuronal differentiation activity (neural stem cells)
CC1=C(C/C=C(\C)CC/C=C(\C)Cn2cnc3c(Cl)ncnc32)C(=O)c2ccccc2C1=O [Compound 16, 2-((2E,6E)-8-(6-Chloro-9H-purin-9-yl)-3,7-dimethylocta-2,6-dien-1-yl)-3-methylnaphthalene-1,4-dione] | no toxicity | inhibited RdRp in a concentration-dependent manner |  |  |  | 
CC1=CC(=O)c2ccccc2C1=O [vitamin K3, menadione] |  |  | inhibit |  |  | 
CC1=C(C/C=C(\C)CC/C=C(\C)Cc2cccc(C)c2)C(=O)c2ccccc2C1=O [Compound 1] |  | inhibited RdRp in a concentration-dependent manner |  | survived as well as control A | anti-SARS-CoV-2 activity was observed | higher neuronal differentiation activity than natural vitamin K homologues; also recorded: induce neural stem cells to differentiate into neurons
CC1=C(C/C=C(\C)CC/C=C(\C)Cc2cccc3ccccc23)C(=O)c2ccccc2C1=O [Compound 2] |  | inhibited RdRp in a concentration-dependent manner |  |  | anti-SARS-CoV-2 activity was observed | induce neural stem cells to differentiate into neurons

— article PMC10652723 (ACS Omega, 2023)
